# Laboratory results from patent US20230172203A1, “PLANT METABOLISM PROMOTING COMPOSITIONS AND METHODS OF USE” (Panoptic Ag Solutions LLC, priority 2021, published 2023).
# Legend:
# Type in all cases: in vivo
# [1] = tested on: Whale variety spinach plant seedlings; assay: 2021 Greenhouse Spinach Trial
# From the text: (§1) The base formulation used in greenhouse trials was an aqueous solution of L-theanine (20% by weight). The base formulation was further diluted with water as detailed for each trial. Whale variety spinach plant seedlings (n=6/treatment) were planted in commercial potting soil and then were transplanted to 3-gallon pots. L-theanine treatment was applied at the equivalent of 1 pint in 100 gallons of water (125 ppm) and sprayed till runoff. Two treatment applications were made to the plants approximately 14 days apart.
# [2] = tested on: Butterbaby variety squash plant seedlings; assay: 2021 Greenhouse Squash Trial
# From the text: as §1, with “Butterbaby” for “Whale”, “squash” for “spinach”, “(n=4/treatment)” for “(n=6/treatment)”
# [3] = tested on: Seedless watermelon plant seedlings; assay: 2021 Watermelon Trial
# From the text: as §1, with “Seedless watermelon” for “Whale variety spinach”, “(n=4/treatment)” for “(n=6/treatment)”
# [4] = tested on: Corn seed; assay: 2020 Greenhouse Corn Seed Treatment Trial
# Procedure: The base formulation used in greenhouse trials was an aqueous solution of L-theanine (20% by weight). The base formulation was further diluted with water as detailed for each trial. Corn seed (n=9/treatment) was treated with an aqueous solution of L-theanine at a rate of 1.0 fl. oz. per hundredweight of corn seed. The seeds were planted in commercial potting soil in 1-gallon pots. The plants were grown for 21 days before they were harvested.
# [5] = tested on: Soybean plants; assay: 2021 Greenhouse Soybean Trial (soil application)
# Procedure: The base formulation used in greenhouse trials was an aqueous solution of L-theanine (20% by weight). The base formulation was further diluted with water as detailed for each trial. Soybean seeds (n=28/treatment) were planted in commercial potting soil in 1-gallon pots. Approximately 14 days after seedling emergence, an aqueous L-theanine solution was mixed into water at a rate of 0.2 mL per 1000 mL water. The resulting solution was applied to the soil of the pots at a rate of 50 mL per plant. Plants were grown for an additional 14 days then harvested.
# [6] = tested on: Soybean plants; assay: 2021 Greenhouse Soybean Trial (foliar application)
# Procedure: The base formulation used in greenhouse trials was an aqueous solution of L-theanine (20% by weight). The base formulation was further diluted with water as detailed for each trial. Soybean seeds (n=12/treatment) were planted in commercial potting soil in 1 gallon pots. […] The plants were grown for another 14 days then harvested.
# [7] = tested on: Mature cherry trees; assay: 2022 Replicated California Cherry Trial
# Procedure: Mature cherry trees (n=6) were treated with a 10% aqueous L-theanine solution at 1 pint per acre with application timings at Early Bloom, Petal Fall, and Early Fruit set. The trial was maintained at grower standard fertilizer and pest management throughout the course of the trial.
# [8] = tested on: Soybean (Glycine max); assay: 2021 Replicated Nebraska Soybean Field Trial
# From the text: Soybean seeds (Glycine max) were planted at a rate of 150,000 seeds per acre. The treated plot size was 5 ft×40 ft and this was replicated 4 times. A 20% aqueous L-theanine solution was applied to the foliage at 8 fl. oz./acre at the R2 (full flowering) growth stage. The trial was fertilized and maintained under grower standard practices.
# [9] = tested on: Wheat (Triticum aestivum); assay: 2022 Replicated South Dakota Spring Wheat Field Trial
# From the text: Wheat seed (Triticum aestivum) was planted at a rate of 90 lbs/acre. The treated plot size was 5 ft×40 ft and this was replicated 4 times. A 20% L-theanine solution was applied at 8 fl. oz./acre to the foliage of the wheat approximately 40 days after emergence. The trial was fertilized and maintained under grower standard practices.
# [10] = foliar spray 125 ppm till runoff, two applications ~14 days apart
# [11] = vs untreated check, 125 ppm foliar, two applications
# [12] = over the untreated check, seed treatment
# [13] = seed treatment 1.0 fl. oz. per hundredweight of seed, harvested after 21 days
# [14] = 0.2 mL per 1000 mL water, 50 mL per plant, harvested 14 days later
# [15] = above the untreated check, foliar 125 ppm
# [16] = foliar, 8 fl. oz./50 gallons of water (125 ppm) till runoff, harvested 14 days later
smiles,measurement,setting,value
CCNC(=O)CC[C@H](N)C(=O)O [L-theanine],Basal Diameter,[1]; [10],3.07 a mm
same,Leaf (count),[1]; [10],8.66 a count
same,Plant Height,[1]; [10],8.67 a in
same,increase in leaf count,[1]; [11],1
same,"increase in leaf count, percent",[1]; [11],13.1%
same,increase in plant height,[1]; [11],1.67 in
same,"increase in plant height, percent",[1]; [11],23.9%
same,"plant productivity, flowering and fruit set (in words)","[2]; 125 ppm foliar, two applications","improved plant productivity, early flowering, and early fruit set"
same,Fruit/Vine (count),[2]; [10],4.25 a count
same,Vine Length,[2]; [10],55.00 a in
same,increase in fruit per vine,[2]; [11],2.75 fruit
same,"increase in fruit per vine, percent",[2]; [11],183.3%
same,increase in vine length,[2]; [11],11.25 in
same,"increase in vine length, percent",[2]; [11],25.7%
same,Fruit/Vine (count),[3]; [10],9.50 a count
same,Vine Length,[3]; [10],51.0 a cm
same,increase in average fruit per vine,[3]; [11],4.75
same,"increase in average fruit per vine, percent",[3]; [11],100.0%
same,increase in vine development,[3]; [11],14.5 cm
same,"increase in vine development, percent",[3]; [11],39.7%
same,increase in biomass,[4]; [12],1.3 g
same,"increase in biomass, percent",[4]; [12],4.4%
same,increase in root length,[4]; [12],69.1 cm
same,"increase in root length, percent",[4]; [12],7.0%
same,increase in root tips,[4]; [12],883.8
same,"increase in root tips, percent",[4]; [12],18.5%
same,Plant Biomass,[4]; [13],29.88 a g
same,Root Length,[4]; [13],1049.08 a cm
same,Root Tips (#),[4]; [13],5656.2 a #
same,Plant Biomass,[5]; [14],7.44 a g
same,Root Length,[5]; [14],1631.4 a cm
same,increase in root length,[5]; above the untreated check,66.4 cm
same,"increase in root length, percent",[5]; above the untreated check,4.2%
same,increase in soybean biomass,[5]; above the untreated check,1.3 g
same,"increase in soybean biomass, percent",[5]; above the untreated check,20.4%
same,increase in biomass,[6]; [15],2.2 g
same,"increase in biomass, percent",[6]; [15],20.1%
same,increase in root length,[6]; [15],254.6 cm
same,"increase in root length, percent",[6]; [15],13.2%
same,increase in root tips,[6]; [15],1345.1
same,"increase in root tips, percent",[6]; [15],36.1%
same,Plant Biomass,[6]; [16],13.02 a g
same,Root Length,[6]; [16],2185.8 a cm
same,Root Tips (count),[6]; [16],5075.9 a count
same,Yield,"[7]; 10% aqueous solution at 1 pint per acre, Early Bloom, Petal Fall, Early Fruit set",70.3 a Boxes/Acre
same,increase in yield,[7]; over the untreated check,12.8 boxes/acre
same,"increase in yield, percent",[7]; over the untreated check,22.3%
same,Yield,"[8]; 20% aqueous solution, foliar, 8 fl. oz./acre at R2 (full flowering)",84.6 a Bushels/Acre
same,increase in yield,[8]; over the untreated control,6.0 bushels per acre
same,"increase in yield, percent",[8]; over the untreated control,7.6%
same,Yield,"[9]; 20% solution, foliar, 8 fl. oz./acre ~40 days after emergence",53.9 a Bushels/Acre
same,increase in yield,[9]; over the untreated control,5.3 bushels/acre
same,"increase in yield, percent",[9]; over the untreated control,10.9%
